Data published in ChEMBL document CHEMBL1201862, “PubChem BioAssay data set” (2004).
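Five compound concentrations were applied to cells in 96-well plates for 48 hours; endpoints were derived by simple linear interpolation of the resulting dose-response curve. GI50 = concentration required for 50% inhibition of growth.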 The source made the active and inactive calls. No stated cut-off is given here; in the data, active = GI50 up to about 1.1 µM and inactive = higher.

Columns and labels:
Experiment in all cases: growth of human tumour cells (NCI), 48 h
[1] = tested on: NCI-H23
[2] = tested on: OVCAR-8
[3] = tested on: RXF 393
[4] = tested on: SNB-75
[5] = tested on: OVCAR-3
[6] = tested on: TK-10
[7] = tested on: A549
[8] = tested on: EKVX
[9] = tested on: CCRF-CEM
[10] = tested on: SF-539
[11] = tested on: SR
[12] = tested on: HL-60
[13] = tested on: RPMI-8226
[14] = tested on: KM12
[15] = tested on: K562
[16] = tested on: LOX IMVI
[17] = tested on: SF-295
[18] = tested on: NCI-H226
[19] = tested on: NCI-H522
[20] = tested on: SW-620
[21] = tested on: UACC-62
[22] = tested on: HOP-62
[23] = tested on: U-251
[24] = tested on: UO-31
[25] = tested on: DU-145
[26] = tested on: MDA-N
[27] = tested on: MCF7
[28] = tested on: SK-MEL-2
[29] = tested on: MDA-MB-435
[30] = tested on: 786-0
[31] = tested on: Hs-578T
[32] = tested on: NCI/ADR-RES
[33] = tested on: NCI-H460
[34] = tested on: BT-549
[35] = tested on: SK-MEL-5
[36] = tested on: HT-29
[37] = tested on: IGROV-1
[38] = tested on: PC-3
[39] = tested on: ACHN
[40] = tested on: M14
[41] = tested on: SF-268
[42] = tested on: Malme-3M
[43] = tested on: HCT-116
[44] = tested on: OVCAR-5
[45] = tested on: COLO 205
[46] = tested on: SK-MEL-28
[47] = tested on: MOLT-4
[48] = tested on: HCC 2998
[49] = tested on: SNB-19
[50] = tested on: UACC-257
[51] = tested on: MDA-MB-231
[52] = tested on: CAKI-1
[53] = tested on: A498
[54] = tested on: HCT-15
[55] = tested on: SN12C
[56] = tested on: OVCAR-4
[57] = tested on: SK-OV-3
[58] = tested on: HOP-92

Measured: GI50

O=C(CN1CCCC1=O)CS(=O)(=O)c1ccccc1
inactive: [1] > 100 µM | [2] > 100 µM | [3] > 100 µM | [4] > 100 µM | [5] > 100 µM | [6] > 100 µM | [7] > 100 µM | [8] > 100 µM | [9] > 100 µM | [10] > 100 µM | [11] > 100 µM | [12] > 100 µM | [13] > 100 µM | [14] > 100 µM | [15] > 100 µM | [16] > 100 µM | [17] > 100 µM | [18] > 100 µM | [19] > 100 µM | [20] > 100 µM | [21] > 100 µM | [22] > 100 µM | [23] > 100 µM | [24] > 100 µM | [25] > 100 µM | [26] > 100 µM | [27] > 100 µM | [28] > 100 µM | [29] > 100 µM | [30] > 100 µM | [31] > 100 µM | [32] > 100 µM | [33] > 100 µM | [34] > 100 µM | [35] > 100 µM | [36] > 100 µM | [37] > 100 µM | [38] > 100 µM | [39] > 100 µM | [40] > 100 µM | [41] > 100 µM | [42] > 100 µM | [43] > 100 µM | [44] > 100 µM | [45] > 100 µM | [46] > 100 µM | [47] > 100 µM | [48] > 100 µM | [49] > 100 µM | [50] > 100 µM

CCOC(=O)CC(=O)NC1CC2CCC1(C)C2(C)C (stereo not drawn)
> 100 µM: [54]
inactive: [1] > 100 µM | [2] > 100 µM | [51] > 100 µM | [3] > 100 µM | [4] > 100 µM | [5] > 100 µM | [6] > 100 µM | [7] > 100 µM | [8] > 100 µM | [9] > 100 µM | [52] > 100 µM | [10] > 100 µM | [11] > 100 µM | [12] > 100 µM | [13] > 100 µM | [14] > 100 µM | [15] > 100 µM | [16] > 100 µM | [17] > 100 µM | [18] > 100 µM | [20] > 100 µM | [21] > 100 µM | [22] > 100 µM | [23] > 100 µM | [24] > 100 µM | [25] > 100 µM | [26] > 100 µM | [27] > 100 µM | [53] > 100 µM | [29] > 100 µM | [30] > 100 µM | [31] > 100 µM | [32] > 100 µM | [33] > 100 µM | [34] > 100 µM | [35] > 100 µM | [36] > 100 µM | [37] > 100 µM | [38] > 100 µM | [39] > 100 µM | [55] > 100 µM | [56] > 100 µM | [40] > 100 µM | [41] > 100 µM | [42] > 100 µM | [57] > 100 µM | [43] > 100 µM | [44] > 100 µM | [45] > 100 µM | [46] > 100 µM | [47] > 100 µM | [48] > 100 µM | [49] > 100 µM | [50] > 100 µM

CC1(C)OCC(COC(=O)C=[N+]=[N-])O1 (stereo not drawn)
> 100 µM: [54]
inactive: [1] > 100 µM | [51] > 100 µM | [3] > 100 µM | [5] > 100 µM | [6] > 100 µM | [8] > 100 µM | [9] > 100 µM | [52] > 100 µM | [11] > 100 µM | [12] > 100 µM | [13] > 100 µM | [14] > 100 µM | [15] > 10 µM | [16] > 100 µM | [17] > 100 µM | [18] > 100 µM | [19] > 100 µM | [20] > 100 µM | [21] > 100 µM | [58] 14.9 µM | [22] 79.8 µM | [23] > 100 µM | [24] > 100 µM | [25] > 100 µM | [26] > 100 µM | [27] 46.5 µM | [53] > 100 µM | [28] > 100 µM | [29] > 100 µM | [30] > 100 µM | [33] 13.2 µM | [34] > 100 µM | [35] > 100 µM | [36] > 100 µM | [37] > 100 µM | [38] > 100 µM | [39] > 100 µM | [55] > 100 µM | [56] > 100 µM | [41] > 100 µM | [42] > 100 µM | [57] > 100 µM | [43] > 100 µM | [44] > 100 µM | [45] > 100 µM | [46] > 100 µM | [47] > 100 µM | [48] > 100 µM | [49] > 100 µM | [50] > 100 µM

COc1cc(NS(C)(=O)=O)ccc1N1Cc2c[nH]c3ccc4nc(C)cc1c4c23
> 100 µM: [54]
inactive: [1] 88.9 µM | [2] 33 µM | [51] 64 µM | [3] 32 µM | [4] 19.7 µM | [5] 31 µM | [6] > 100 µM | [7] 62.5 µM | [8] 67.5 µM | [9] 52.1 µM | [52] 26.4 µM | [12] 91.4 µM | [13] 31.5 µM | [14] > 100 µM | [15] 26.5 µM | [16] > 100 µM | [17] 54.8 µM | [18] 38.8 µM | [19] 26.2 µM | [20] > 100 µM | [21] 72.3 µM | [58] 24.9 µM | [22] 25.9 µM | [23] 32.3 µM | [24] > 100 µM | [25] > 100 µM | [26] 19.6 µM | [27] 52.6 µM | [53] > 100 µM | [28] 74 µM | [29] 17.5 µM | [30] 20.7 µM | [31] 40.6 µM | [32] > 100 µM | [33] 86.1 µM | [34] > 100 µM | [35] 97.7 µM | [36] > 100 µM | [37] 33.3 µM | [38] > 100 µM | [39] > 100 µM | [56] 49.9 µM | [40] > 100 µM | [41] 22.7 µM | [57] 41.6 µM | [43] 62.8 µM | [44] > 100 µM | [45] > 100 µM | [46] 35.5 µM | [47] 48.5 µM | [48] > 100 µM | [49] 18.7 µM | [50] > 100 µM

Cc1sc(Cc2ccccc2)nc1-c1ccc(N)cc1
inactive: [1] 32.9 µM | [2] 31 µM | [51] 26.1 µM | [5] 20.7 µM | [6] 47.5 µM | [7] 30.6 µM | [8] 31.4 µM | [9] 15.9 µM | [52] 24 µM | [12] 26.2 µM | [13] 16.3 µM | [14] 17 µM | [15] 20.7 µM | [16] 15.2 µM | [17] 37.4 µM | [19] 16 µM | [20] 23.7 µM | [21] 15.1 µM | [58] 13.8 µM | [23] 26.6 µM | [24] 38.9 µM | [27] 19.5 µM | [53] 29.4 µM | [28] 17.3 µM | [29] 17.7 µM | [31] 20.2 µM | [32] 27.7 µM | [33] 23 µM | [34] 28.2 µM | [35] 18 µM | [36] 22.6 µM | [37] 27.9 µM | [38] 29.9 µM | [39] 31.2 µM | [55] 21.1 µM | [56] 12.7 µM | [40] 20.6 µM | [41] 25 µM | [42] 31.3 µM | [43] 20.2 µM | [44] 32.5 µM | [45] 23.1 µM | [46] 30.9 µM | [47] 13.8 µM | [48] 19.1 µM | [49] 48.4 µM | [50] 30 µM
19.8 µM: [54]
